Experimental data: patent US20230125667A1, “NOVEL TDZD ANALOGS AS AGENTS THAT DELAY, PREVENT, OR REVERSE AGE-ASSOCIATED DISEASES AND AS ANTI-CANCER AND ANTILEUKEMIC AGENTS” (United States Government as represented by the Department …, priority 2020, published 2023)
Where two headings read alike, the source gives them in different places.

Assays:
[1] = tested on: SN12C; assay: NCI-60 growth inhibition: SN12C (Renal Cancer); format: cell-based, human
[2] = tested on: MOLT-4; assay: NCI-60 growth inhibition: MOLT-4 (Leukemia); format: cell-based, human
[3] = tested on: NCI-H460; assay: NCI-60 growth inhibition: NCI-H460 (Non-Small-Cell Lung Cancer); format: cell-based, human
[4] = tested on: HL-60(TB); assay: NCI-60 growth inhibition: HL-60(TB) (Leukemia); format: cell-based, human
[5] = tested on: human leukemia cell lines; assay: NCI-60 growth inhibition, leukemia cell lines; conditions: for potency against leukemia cell lines (GI50 <1.0): NCI panel
[6] = tested on: TK-10; assay: NCI-60 growth inhibition: TK-10 (Renal Cancer); format: cell-based, human
[7] = tested on: M14; assay: NCI-60 growth inhibition: M14 (Melanoma); format: cell-based, human
[8] = tested on: MCF7; assay: NCI-60 growth inhibition: MCF7 (Breast Cancer); format: cell-based, human
[9] = tested on: RXF 393; assay: NCI-60 growth inhibition: RXF 393 (Renal Cancer); format: cell-based, human
[10] = tested on: SK-MEL-28; assay: NCI-60 growth inhibition: SK-MEL-28 (Melanoma); format: cell-based, human
[11] = tested on: PC-3; assay: NCI-60 growth inhibition: PC-3 (Prostate Cancer); format: cell-based, human
[12] = tested on: HCT-116; assay: NCI-60 growth inhibition: HCT-116 (Colon Cancer)
[13] = tested on: SNB-19; assay: NCI-60 growth inhibition: SNB-19 (CNS Cancer); format: cell-based, human
[14] = tested on: OVCAR-5; assay: NCI-60 growth inhibition: OVCAR-5 (Ovarian Cancer); format: cell-based, human
[15] = tested on: ACHN; assay: NCI-60 growth inhibition: ACHN (Renal Cancer); format: cell-based, human
[16] = tested on: SK-MEL-5; assay: NCI-60 growth inhibition: SK-MEL-5 (Melanoma); format: cell-based, human
[17] = tested on: K-562; assay: NCI-60 growth inhibition: K-562 (Leukemia); format: cell-based, human
[18] = tested on: HOP-92; assay: NCI-60 growth inhibition: HOP-92 (Non-Small-Cell Lung Cancer); format: cell-based, human
[19] = tested on: U251; assay: NCI-60 growth inhibition: U251 (CNS Cancer); format: cell-based, human
[20] = tested on: 786-0; assay: NCI-60 growth inhibition: 786-0 (Renal Cancer); format: cell-based, human
[21] = tested on: HS 578T; assay: NCI-60 growth inhibition: HS 578T (Breast Cancer); format: cell-based, human
[22] = tested on: CCRF-CEM; assay: NCI-60 growth inhibition: CCRF-CEM (Leukemia); format: cell-based, human
[23] = tested on: NCI-H522; assay: NCI-60 growth inhibition: NCI-H522 (Non-Small-Cell Lung Cancer)
[24] = tested on: UO-31; assay: NCI-60 growth inhibition: UO-31 (Renal Cancer); format: cell-based, human
[25] = tested on: COLO 205; assay: NCI-60 growth inhibition: COLO 205 (Colon Cancer); format: cell-based, human
[26] = tested on: SF-539; assay: NCI-60 growth inhibition: SF-539 (CNS Cancer); format: cell-based, human
[27] = tested on: OVCAR-8; assay: NCI-60 growth inhibition: OVCAR-8 (Ovarian Cancer); format: cell-based, human
[28] = tested on: MV4-11 cell line (myelomonocytic leukemia); conditions: MV4-11 cells; for LD50, 7AAD (μM) 24 h / LD50, Alamar blue (μM) 24 h / LD50, YOPRO (μM) 24 h: MMB-TDZD analogs (Table 2)
[29] = tested on: HT29; assay: NCI-60 growth inhibition: HT29 (Colon Cancer); format: cell-based, human
[30] = tested on: UACC-62; assay: NCI-60 growth inhibition: UACC-62 (Melanoma); format: cell-based, human
[31] = tested on: CAKI-1; assay: NCI-60 growth inhibition: CAKI-1 (Renal Cancer); format: cell-based, human
[32] = tested on: A498; assay: NCI-60 growth inhibition: A498 (Renal Cancer); format: cell-based, human
[33] = tested on: MALME-3M; assay: NCI-60 growth inhibition: MALME-3M (Melanoma); format: cell-based, human
[34] = tested on: UACC-257; assay: NCI-60 growth inhibition: UACC-257 (Melanoma); format: cell-based, human
[35] = tested on: NCI-H23; assay: NCI-60 growth inhibition: NCI-H23 (Non-Small-Cell Lung Cancer); format: cell-based, human
[36] = tested on: DU-145; assay: NCI-60 growth inhibition: DU-145 (Prostate Cancer); format: cell-based, human
[37] = tested on: BT-549; assay: NCI-60 growth inhibition: BT-549 (Breast Cancer); format: cell-based, human
[38] = tested on: EKVX; assay: NCI-60 growth inhibition: EKVX (Non-Small-Cell Lung Cancer); format: cell-based, human
[39] = tested on: MDA-MB-231/ATCC; assay: NCI-60 growth inhibition: MDA-MB-231/ATCC (Breast Cancer); format: cell-based, human
[40] = tested on: OVCAR-4; assay: NCI-60 growth inhibition: OVCAR-4 (Ovarian Cancer); format: cell-based, human
[41] = tested on: SF-268; assay: NCI-60 growth inhibition: SF-268 (CNS Cancer); format: cell-based, human
[42] = tested on: T-47D; assay: NCI-60 growth inhibition: T-47D (Breast Cancer); format: cell-based, human
[43] = tested on: MDA-MB-468; assay: NCI-60 growth inhibition: MDA-MB-468 (Breast Cancer); format: cell-based, human; conditions: MDA-MB-468 (Breast Cancer), read-out: GI50
[44] = tested on: LOX IMVI; assay: NCI-60 growth inhibition: LOX IMVI (Melanoma); format: cell-based, human
[45] = tested on: SW-620; assay: NCI-60 growth inhibition: SW-620 (Colon Cancer); format: cell-based, human
[46] = tested on: HCT-15; assay: NCI-60 growth inhibition: HCT-15 (Colon Cancer); format: cell-based, human
[47] = tested on: IGROV1; assay: NCI-60 growth inhibition: IGROV1 (Ovarian Cancer); format: cell-based, human
[48] = tested on: MDA-MB-435; assay: NCI-60 growth inhibition: MDA-MB-435 (Melanoma); format: cell-based, human
[49] = tested on: OVCAR-3; assay: NCI-60 growth inhibition: OVCAR-3 (Ovarian Cancer); format: cell-based, human
[50] = tested on: SNB-75; assay: NCI-60 growth inhibition: SNB-75 (CNS Cancer); format: cell-based, human
[51] = tested on: RPMI-8226; assay: NCI-60 growth inhibition: RPMI-8226 (Leukemia); format: cell-based, human
[52] = tested on: SK-MEL-2; assay: NCI-60 growth inhibition: SK-MEL-2 (Melanoma); format: cell-based, human
[53] = tested on: SR; assay: NCI-60 growth inhibition: SR (Leukemia); format: cell-based, human; conditions: Homo sapiens

SMILES: C=C1C(=O)O[C@H]2[C@H]1CC/C(COC(=O)NCc1ccc(Cn3c(=O)sn(CCCC#N)c3=O)cc1)=C\CC[C@@]1(C)O[C@@H]21 [BSK-226]
- GI50 [1]: 1360 nM
- GI50 [2]: 1500 nM
- GI50 [3]: 11300 nM
- GI50 ([4]; HL-60(TB) (Leukemia), read-out: GI50): 960 nM
- potency against leukemia cell lines (GI50 <1.0) [5]: comparably potent against 4 out of 5 leukemia cell lines
- GI50 [6]: 1750 nM
- GI50 [7]: 1930 nM
- GI50 [8]: 1710 nM
- GI50 [9]: 1350 nM
- GI50 [10]: 1690 nM
- GI50 [11]: 2130 nM
- GI50 ([12]; HCT-116 (Colon Cancer)): 560 nM
- GI50 ([12]; HCT-116 (colon cancer)): 560 nM
- GI50 [13]: 4840 nM
- GI50 [14]: 2640 nM
- GI50 [15]: 1660 nM
- GI50 [16]: 3720 nM
- GI50 [17]: 720 nM
- GI50 [18]: 1100 nM
- GI50 [19]: 5050 nM
- GI50 [20]: 1480 nM
- GI50 [21]: 5640 nM
- GI50 [22]: 570 nM
- GI50 ([23]; NCI-H522 (Non-Small-Cell Lung Cancer)): 530 nM
- GI50 ([23]; NCI-H522 (non-small-cell lung cancer)): 530 nM
- GI50 [24]: 1400 nM
- GI50 [25]: 2040 nM
- GI50 [26]: 1730 nM
- GI50 [27]: 2320 nM
- LD50, 7AAD (μM) 24 h [28]: 0.75 µM
- LD50, Alamar blue (μM) 24 h [28]: 0.45 µM
- LD50, YOPRO (μM) 24 h [28]: 0.37 µM
- GI50 [29]: 2460 nM
- GI50 [30]: 1440 nM
- GI50 [31]: 2050 nM
- GI50 [32]: 2830 nM
- GI50 [33]: 1340 nM
- GI50 [34]: 1610 nM
- GI50 [35]: 2330 nM
- GI50 [36]: 1640 nM
- GI50 [37]: 1480 nM
- GI50 [38]: 2820 nM
- GI50 [39]: 1720 nM
- GI50 [40]: 1670 nM
- GI50 [41]: 2630 nM
- GI50 [42]: 1970 nM
- GI50 [43]: 1530 nM
- GI50 [44]: 1580 nM
- GI50 [45]: 1230 nM
- GI50 [46]: 1940 nM
- GI50 [47]: 1780 nM
- GI50 [48]: 1800 nM
- GI50 [49]: 770 nM
- GI50 [50]: 2030 nM
- GI50 [51]: 760 nM
- GI50 [52]: 4830 nM

SMILES: C=C1C(=O)O[C@H]2[C@H]1CC/C(COC(=O)NCc1ccc(Cn3c(=O)sn(CCCI)c3=O)cc1)=C\CC[C@@]1(C)O[C@@H]21 [BSK-259]
- GI50 ([1]; Homo sapiens): 1570 nM
- GI50 ([2]; Homo sapiens): 290 nM
- GI50 ([3]; Homo sapiens): 3200 nM
- GI50 ([4]; Homo sapiens, HL-60): 300 nM
- GI50 ([5]; Homo sapiens): 280 to 900 nM
- potency against leukemia cell lines (GI50 <1.0) [5]: high potency against all 6 leukemia cell lines
- GI50 ([6]; Homo sapiens): 1710 nM
- GI50 ([7]; Homo sapiens): 1740 nM
- GI50 ([8]; Homo sapiens): 1410 nM
- GI50 ([9]; Homo sapiens): 1520 nM
- GI50 ([10]; Homo sapiens): 1920 nM
- GI50 ([11]; Homo sapiens): 1940 nM
- GI50 ([12]; Homo sapiens, HCT-116): 1050 nM
- GI50 ([13]; Homo sapiens): 3120 nM
- GI50 ([14]; Homo sapiens): 1850 nM
- GI50 ([15]; Homo sapiens): 1700 nM
- GI50 ([16]; Homo sapiens): 1910 nM
- GI50 ([17]; Homo sapiens, K562): 340 nM
- GI50 ([18]; Homo sapiens): 1220 nM
- GI50 ([19]; Homo sapiens, U-251): 1750 nM
- GI50 [53]: 280 nM
- GI50 ([20]; Homo sapiens): 1680 nM
- GI50 ([21]; Homo sapiens): 3170 nM
- GI50 ([22]; Homo sapiens): 310 nM
- GI50 ([23]; Homo sapiens, NCI-H522): 1070 nM
- GI50 ([24]; Homo sapiens): 1520 nM
- GI50 ([25]; Homo sapiens): 1950 nM
- GI50 ([26]; Homo sapiens): 1710 nM
- GI50 ([27]; Homo sapiens): 3040 nM
- fold more cytotoxic than PTL [28]: 273 fold
- fold more cytotoxic than TDZD-8 [28]: 329 fold
- LD50, 7AAD (μM) 24 h [28]: 0.01 µM
- LD50, Alamar blue (μM) 24 h [28]: 0.30 µM
- LD50, YOPRO (μM) 24 h [28]: 0.01 µM
- LD50 ([28]; values in text): 10 nM
- GI50 ([29]; Homo sapiens, HT-29): 1740 nM
- GI50 ([30]; Homo sapiens): 1410 nM
- GI50 ([31]; Homo sapiens): 1700 nM
- GI50 ([32]; Homo sapiens): 4850 nM
- GI50 ([33]; Homo sapiens): 1390 nM
- GI50 ([34]; Homo sapiens): 1790 nM
- GI50 ([35]; Homo sapiens): 2110 nM
- GI50 ([36]; Homo sapiens): 1730 nM
- GI50 ([37]; Homo sapiens): 1380 nM
- GI50 ([38]; Homo sapiens): 2090 nM
- GI50 ([39]; Homo sapiens): 1750 nM
- GI50 ([40]; Homo sapiens): 1460 nM
- GI50 ([41]; Homo sapiens): 2540 nM
- GI50 ([42]; Homo sapiens, T47D): 1790 nM
- GI50 ([43]; Homo sapiens): 1540 nM
- GI50 ([44]; Homo sapiens): 1400 nM
- GI50 ([45]; Homo sapiens): 1400 nM
- GI50 ([46]; Homo sapiens): 1890 nM
- GI50 ([47]; Homo sapiens, IGROV-1): 1750 nM
- GI50 ([48]; Homo sapiens): 1680 nM
- GI50 ([49]; Homo sapiens): 1190 nM
- GI50 ([51]; Homo sapiens): 900 nM
- GI50 ([52]; Homo sapiens): 2420 nM
